Patent publication US6369109B1, “Betulinic acid and derivatives thereof useful for the treatment of neuroectodermal tumor” (Deutsches Krebsforschungszentrum Stiftung des Offentlichen …, priority 1998, dated 2002)
“Also recorded” adds a separate entry of the source.

Experiments:
[1] = test system: mitochondria isolated from SHEP cells; assay: Cytochrome c release from isolated mitochondria (Western blot); type: biochemical, human; conditions: bongkrekic acid; FIG. 10C
Description: Cells were lysed for 30 min at 4° C. in PBS with 0.5% Triton X (Serva, Heidelberg, Germany) and 1 mM PMSF (Sigma, Deisenhofen, Germany) followed by high-speed centrifugation. Membrane proteins were eluted in buffer containing 0.1 M glycine, pH 3.0 and 1.5 M Tris, pH 8.8. Protein concentration was assayed using bicinchoninic acid (Pierce, Rockford, Ill.). 40 μg protein per lane was separated by 12% or 15% SDS-PAGE and electro blotted onto nitrocellulose (Amersharn, Braunschweig, Germany). Equal protein loading was controlled by Ponceau red staining of membranes. After blocking for 1 h in PBS supplemented with 2% BSA (Sigma) and 0.1% Tween 20 (Sigma), immunodetection of caspases-3 and -8, PARP, and cytochrome c protein was done using mouse anti-caspase-8 mAb C15 (Scaffidi et al., 1997, J. Biol. Chem. 272, 26953-26958, 1:5 dilution of hybridoma supernatant), mouse anti-caspase-3-specific mAb (1:1000, Transduction Laboratories, Lexington, Ky.), rabbit anti-PARP polyclonal antibody (1:10000, Enzyme Systems Products) or mouse anti-cytochrome c mAb (1:5000, PharMingen, San Diego, Calif.). Goat anti-mouse IgG or goat anti-rabbit IgG (1:5000, Santa Cruz Biotechnology) followed by ECL (Amersham) was used for detection.
Mitochondria isolated from SHEP cells transfected with bcl-2, Bcl-XL or a neontycin resistance vector only (Neo) were treated with 10 μg/ml betulinic acid. […]

[2] = test system: doxorubicin-resistant SH-EP^DoxoR cells; assay: Specific apoptosis in resistant cells, FACS of propidium iodide-stained nuclei; type: cell-based, human; conditions: 10 μg/ml betulinic acid or 0.5 μg/ml doxorubicin, 72 h; FIG. 6A
Description: (§1) Neuroblastoma (SH-EP, IMR-32, Kelly, and LAN-5, kindly provided by Professor M. Schwab, German Cancer Research Center, Heidelberg, Germany), medulloblastoma cells (Daoy, kindly provided by Dr. T. Pietsch, Department of Neuropathology, University of Bonn Medical Center, Bonn, Germany), Ewing's sarcoma cells (A17/95, kindly provided by Dr. U. Anderer, Institute of Pathology, Humboldt University, Berlin, Germany), melanoma (A-378), breast carcinoma (MCF-71), colon carcinoma (HT-29), small cell lung carcinoma (H-126), renal cell carcinoma (KTCTL-26, kindly provided by H. Lörke, German Cancer Research Center, Heidelberg, Germany) and T-cell leukemia (CEM) cells were cultured in RPMI 1640 (Life Technologies, Inc., Eggenstein, Germany) supplemented with 10% heat-inactivated fetal bovin serum (FCS) from Conco. […]
(§2) Quantification of DNA fragmentation was performed by FACS analysis of propidium iodide stained nuclei as described in Nicoletti et al, 1991, J. Immunol. […] Cells were analyzed for DNA content by flow. cytometry (FACScan, Becton Dickinson, Heidelberg, Germany) using CELLQuest software. […] Cells were analyzed by flow cytometry (FAC-Scan. Becton Dickinson) using CELLQuest software.
(§3) SH-EP neuroblastoma cells (▪). […] Specific apoptosis was determined and calculated as described in the legend to FIG. 1A. […]

[3] = test system: CD95-resistant SH-EP^CD95R cells; assay: as above; type: cell-based, human; conditions: 10 μg/ml betulinic acid or 0.5 μg/ml doxorubicin, 72 h; FIG. 6A
Description: as §1, §2, §3

[4] = test system: p53 protein in SH-EP neuroblastoma cells; assay: Western blot of p53 accumulation; type: cell-based, human; conditions: 10 μg/ml betulinic acid; 0.5 μg/ml doxorubicin 12 h; FIG. 5D
Description: Cells were lysed for 30 min at 4° C. in PBS with 0.5% Triton X (Serva, Heidelberg, Germany) and 1 mM phenylmethylsulfonyl fluoride (Sigma, Deisenhofen, Germany) followed by high-speed centrifugation. Membrane proteins were eluted in buffer containing 0.1 M glycine. PH 3.0 and 1.5 M Tris, pH 8.8. Protein concentration was assayed using bicinchoninic acid (Pierce Chemical Co., Rockford, Ill.). Forty μg of protein per lane were separated by 12% SDS-PAGE and electroblotted onto nitrocellulose (Amersham, Braunschweig, Germany). Equal protein loading was controlled by Ponceau red staining of membranes. After blocking for 1 h in PBS supplemented with 2% BSA (Sigma) and 0.1% Tween 20 (Sigma), immunodetection of FLICE, CPP32, PARP, Bax, Bcl-x, Bcl-2, and p53 protein was done using mouse anti-FLICE monoclonal antibody C15 (1:5 dilution of hybridoma supernatant), mouse anti-CPP32 monoclonal antibody (1:1000, Transduction Laboratories, Lexington, KY), rabbit anti-PARP polyclonal antibody (1:10000, Enzyme Systems Products), rabbit anti-Bax polyclonal antibody (1:500, Calbiochem, Bad Soden, Germany), rabbit anti-Bcl-x polyclonal antibody (1:1000, Santa Cruz Biotechnology, Santa Cruz, Calif.), mouse anti-p53 monoclonal antibody (1:10000, Transduction Laboratories), and goat anti-mouse 1gG or goat antirabbit IgG (1:5000, Santa Cruz Biotechnology), ECL (Amersham) was used for detection. […]

Compound | effect of inhibitor on betulinic acid-driven release of cytochrome c [1] | response of doxorubicin-resistant cells (specific apoptosis) [2] | response of anti-CD95-resistant cells (specific apoptosis) [3] | accumulation of p53 protein [4]
CO[C@H](C/C=C\C=C\CC/C=C/C[C@H](C)/C=C/C(=C\C(=O)O)CC(=O)O)/C(C)=C\C=C(/C)C(=O)O [bongkrekic acid] | blocked |  |  | 
COc1cccc2c1C(=O)c1c(O)c3c(c(O)c1C2=O)C[C@@](O)(C(=O)CO)C[C@@H]3O[C@H]1C[C@H](N)[C@H](O)[C@H](C)O1 [doxorubicin] |  | partially resistant to doxorubicin | partially resistant to doxorubicin | induces the accumulation of p53 protein; also recorded: strongly increased
